Laboratory results: patent publication US20170224775A1, “Lv PEPTIDE, ANTI-Lv ANTIBODY AND METHODS THEREOF” (The Texas A&M University System, priority 2016, published 2017)

Tests used:
Assay type in all cases: cell-based, chicken
[1] = system: ERK and PKC; experiment: Western blot of pERK and pPKCα/β (downstream of VEGFR2) in cultured cardiomyocytes; conditions: inhibitor with peptide Lv
Description: (§1) Fertilized eggs (Gallus gallus, Single Comb White Leghorns) were obtained from the Poultry Science Department, Texas A&M University (College Station, Tex., USA). All chicken embryos were maintained at 39° C.±0.5° C. Chicken hearts were harvested at embryonic day 12 (E12) and ventricular cardiomyocytes were dissociated and cultured on poly-D-lysine/collagen double-coated dishes (for biochemical and molecular biological assays) or coverslips (for electrophysiological recordings) as described previously. All cultures were maintained at 39° C.±0.5° C. with 5% CO2. Cells were cultured for 2-3 days and subjected to treatments with vehicle, peptide Lv, or pharmaceutical blockers prior to Western blotting or electrophysiological recordings.
(§2) Treated or control cells were washed and lysed in radioimmunoprecipitation assay (RIPA) buffer, and proteins were denatured by mixing with 2× Laemmli sample buffer for 5 minutes at 95° C. Samples were separated on 10% sodium dodecyl sulfate-polyacrylamide gel electrophoresis (SDS-PAGE) gels and transferred to nitrocellulose membranes. The primary antibodies used in this study were pan L-VGCCα1, ERK1/2, di-phosphorylated ERK1/2, actin, phosphorylated PKC α/βII subunit, phosphorylated tyrosine, VEGFR2, and phosphorylated VEGFR2 at tyr1054/1059. […]

[2] = system: VEGFR2; experiment: Western blot of VEGFR2 autophosphorylation (pVEGFR2-tyr1054/1059) in cultured embryonic cardiomyocytes; conditions: DMH4 in presence of peptide Lv
Description: as §1, §2

[3] = system: L-VGCC; experiment: Whole-cell patch-clamp recordings of L-VGCC currents in cultured embryonic cardiomyocytes
Description: as §1
Ventricular cardiomyocytes were cultured for two days. Whole-cell patch-clamp recordings of L-VGCC currents were carried out from spontaneously pulsing cardiomyocytes. The external solution was (in mM): 145 TEACl, 9 BaCl2, 0.5 MgCl2, 5.5 glucose, 0.1 NiCl2, and 5 HEPES, pH 7.4 with CsOH or TEAOH. The pipette solution was (in mM): 125 Cs acetate, 20 CsCl, 3MgCl2, 10 EGTA, and 5 HEPES, pH 7.4 adjusted with CsOH. Currents were recorded at room temperature using an A-M Systems model 2400 patch-clamp amplifier (Sequim, Wash., USA). Signals were low-pass filtered at 2 kHz and digitized at 5 kHz with Digidata 1440A interface and pCLAMP 10.0 software (Molecular Devices, Sunnyvale, Calif., USA). Cardiomyocytes were held at −40 mV, and Ba^2+ currents were recorded immediately after whole-cell patches were formed by gentle suctions. Current-voltage (I-V) relationships were elicited from a holding potential at −40 mV using 200 ms steps (5 seconds between steps) over a range from −60 to +60 mV in 10 mV increments. The current densities were calculated by dividing the current amplitudes (pA) by membrane capacitances (pF).

Compound: CN=c1nc(-c2ccccc2)n(-c2ccccc2)s1 [SCH202676]
- inhibition of effects of peptide Lv on pERK and pPKCα/β [1]: did not inhibit the effects of peptide Lv on pERK and pPKCα/β

Compound: DMH4
- inhibition of peptide Lv-enhanced VEGFR2 phosphorylation [2]: sensitive to DMH4 inhibition
- block of VEGFa augmentation of L-VGCCs ([3]; DMH4 5 μM with VEGFa): blocked the augmentation of L-VGCCs by VEGFa
- L-VGCCs, inhibitor by itself ([3]; DMH4 alone, without peptide Lv): did not affect the LVGCCs
- block of peptide Lv augmentation of L-VGCC currents ([3]; DMH4 together with peptide Lv): able to block the augmentation effect of peptide Lv on L-VGCC currents

Compound: COc1cccc(-c2cc(=O)c3ccccc3o2)c1N [PD98059]
- peptide Lv augmentation of L-VGCC currents ([3]; PD98059 50 μM): decreased the peptide Lv augmentation of L-VGCC currents

Compound: COc1ccc2c(c[n+](C)c3c4cc5c(cc4ccc23)OCO5)c1OC [chelerythrine]
- peptide Lv augmentation of L-VGCC currents ([3]; chelerythrine 2 μM): decreased the peptide Lv augmentation of L-VGCC currents
